Measured values: patent publication US20080039442A1, “Compounds With Kv4 Ion Channel Activity” (Devgen NV, priority 2004, published 2008)
Like-named read-outs stand apart in the source and are kept apart here.

What was measured:
[1] = molecular target: T1, human Kv4.3/KChIP2.2 potassium channel (Homo sapiens, UniProt Q9UK17); experiment: Whole cell patch clamp, CHO-K1 cells stably expressing Kv4.3/KChIP2.2; format: cell-based; conditions: CHO-K1, 1 μM
T1 construct: expressed in transfected cells
T1 sequence (Q9UK17 1-655): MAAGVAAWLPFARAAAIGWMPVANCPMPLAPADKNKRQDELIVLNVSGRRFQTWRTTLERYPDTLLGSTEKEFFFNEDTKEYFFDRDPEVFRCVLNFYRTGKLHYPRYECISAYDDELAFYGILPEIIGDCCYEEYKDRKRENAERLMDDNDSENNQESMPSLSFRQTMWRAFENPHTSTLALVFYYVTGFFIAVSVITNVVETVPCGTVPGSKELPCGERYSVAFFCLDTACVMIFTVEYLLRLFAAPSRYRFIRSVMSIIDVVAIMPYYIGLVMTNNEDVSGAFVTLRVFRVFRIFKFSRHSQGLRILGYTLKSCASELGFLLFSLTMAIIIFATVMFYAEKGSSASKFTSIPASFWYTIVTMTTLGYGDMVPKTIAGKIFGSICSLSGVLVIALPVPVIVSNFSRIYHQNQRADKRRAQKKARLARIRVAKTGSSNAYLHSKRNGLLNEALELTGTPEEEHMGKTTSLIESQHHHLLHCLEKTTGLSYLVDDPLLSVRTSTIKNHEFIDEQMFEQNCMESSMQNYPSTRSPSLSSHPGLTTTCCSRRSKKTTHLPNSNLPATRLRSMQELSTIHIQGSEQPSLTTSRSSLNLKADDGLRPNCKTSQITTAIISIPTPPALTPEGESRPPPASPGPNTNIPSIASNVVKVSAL
T1 sequence (Q9NS61 1-270 partner): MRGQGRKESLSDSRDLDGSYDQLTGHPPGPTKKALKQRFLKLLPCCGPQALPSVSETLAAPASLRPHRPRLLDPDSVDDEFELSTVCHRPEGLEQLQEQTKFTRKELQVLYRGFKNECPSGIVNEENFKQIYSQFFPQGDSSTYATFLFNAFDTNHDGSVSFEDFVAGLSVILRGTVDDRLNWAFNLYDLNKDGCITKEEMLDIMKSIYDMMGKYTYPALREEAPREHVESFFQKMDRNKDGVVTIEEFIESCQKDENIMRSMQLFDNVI
Experimental: For this experiment, a recombinant CHO-K1 cell line stably expressing the human Kv4.3/KChIP2.2 potassium channel was used.
Protocol B: The cells were cultured in 94 mm culture dishes under the culturing conditions of 5% CO2 and 37° C. Subculturing was performed every 3-4 days, by removing the media and then rising the dish with 8 ml PBS (phosphate buffered saline). The PBS was removed and 1 ml Trypsin/EDTA was added to the cells. The cells were incubated about 2 min at 37° C. or 5 min at room temperature and then the dish was rapped to detach and singularize the cells. To inactivate the enzyme 9 ml of media was added and the solution was pipetted up and down to break up clumps of cells. Part of the suspension was then transferred to a new 94 mm dish and media was added to a final volume of 8 ml. If necessary the cells could be seeded onto 35 mm or 94 mm dishes (2 ml media per 35 mm dish and 8 ml media per 94 mm dish). The media was changed every 2-3 days. The media used was the solution for culturing the cells described above. For stable cells antibiotic G418, Hygromycin, Blasticidin, or Zeocin were not added.
The preparation of cells for electrophysiological experiments was performed as described in protocol C hereunder.
Protocol C: The transfected cells and stable cells were transferred from 35 mm cell culture dishes onto coverslips using cold PBS: The media was removed and 0.3 ml of PBS (4-10° C.) was added. The cells were incubated 5 min at room temperature. The dish was rapped to detach and singularize the cells and 1.7 ml media was added and the solution pipetted up and down to break up clumps of cells. Part of the cell suspension was then transferred to a 35 mm dish with coverslips and media. The transfected cells and stable cells could also be transferred from 35 mm cell culture dishes onto coverslips using trypsin: The media was removed and the dish rinsed with 3 ml PBS. The PBS was removed and 0.3 ml 1× Trypsin/EDTA was added and the cells incubated 5 min at room temperature. The dish was rapped to detach and singularize the cells and 1.7 ml media was added and the solution pipetted up and down to break up clumps of cells. Part of the cell suspension was then transferred to a 35 mm dish with coverslips and media.
10 mM stock solutions of the compounds were prepared in DMSO. Solutions of the compounds were prepared by dilution of stock solution in bath solution. If the required stock solution volume was theoretically below 1 μl, bath solutions with higher compound concentration were used for dilution. The maximal DMSO concentration during experiments was 0.1% (v/v).
For patch clamp experiments, the following solutions in demineralized water as vehicle were used (concentration in mM).
Bath (external) solution: 4 KCl, 135 NaCl, 2 CaCl2, 1 MgCl2, 10 D(+)-Glucose, 5 HEPES, pH 7.4 (NaOH).
Pipette (internal) solution: 130 KCl, 1 MgCl2, 10 EGTA, 5 Na2ATP, 5 HEPES, pH 7.4 (KOH).
Experiments were performed using a patch clamp set-up.
Measurements were performed at room temperature (20-25° C.). […] Each cell acted as its own control. The effect of compounds on Kv4.3/KChIP2.2 mediated currents was investigated at one concentration ([…]) with two replicates each (c=1, n=2).
The test protocols are illustrated in FIG. 1 and Table 4. […] Each test protocol consisted of 4 segments.
Subsequently, 14 test pulses (series 1; FIG. 1b and Table 4b) were applied at 0.1 Hz under constant superfusion with bath solution. The protocol was initiated by a voltage jump to −100 mV (400 ms) to achieve full inactivation. Then the Kv4.3/KChIP2.2 channels were transferred to the open state by depolarization to +40 mV for 300 milliseconds (activation). Only cells generating current amplitudes between 1 nA and 50 nA were used for the experimental procedure. No or negligible rundown was observed.
Then, 36 test pulses (series 2) were applied at 0.1 Hz under constant superfusion with the compound dissolved in bath solution. […]

[2] = read-out: Kv4.3 charge in %: remaining current measured after application of the compound and relative to the blank
[3] = read-out: Kv4.3 peak in %: remaining peak height measured after application of the compound and relative to the blank

Structure (SMILES)	remaining activity at 1 µM [1, 2]	remaining activity at 1 µM [1, 3]	melting point
COc1ccc(CC(=O)Nc2cc3ccccc3o2)c(OC)c1 [Compound 22, N-benzofuran-2-yl-2-(2,4-dimethoxy-phenyl)-acetamide]	90%	100%	126.4 to 128.2 °C
O=C(Nc1ccc(Cn2cccn2)cc1)c1cc2cc(Cl)ccc2o1 [Compound 105, 5-chloro-benzofuran-2-carboxylic acid (4-pyrazol-1-ylmethyl-phenyl)-amide]	90%	99%	197.4 to 198.8 °C
O=C(NCc1cccc(OC(F)(F)F)c1)c1cc2cc(Cl)ccc2o1 [Compound 88, 5-chloro-benzofuran-2-carboxylic acid 3-trifluoromethoxy-benzylamide]	–	–	133.5 to 137.9 °C
Cc1c(C(=O)NCc2ccc(OC(F)(F)F)cc2)sc2ccc(Cl)cc12 [Compound 117]	–	–	159.2 to 162.4 °C
O=C(NC1CCc2ccccc21)c1cc2cc(Cl)ccc2o1 (centres unmarked) [Compound 94, 5-chloro-benzofuran-2-carboxylic acid indan-1-ylamide]	–	–	161.4 to 164.1 °C
COc1ccc(CNC(=O)c2cc3cc(Cl)ccc3[nH]2)c(OC)c1 [Compound 111, 5-chloro-1H-indole-2-carboxylic acid 2,4-dimethoxy-benzylamide]	–	–	205.7 to 209.3 °C
COC(=O)c1cccc(CNC(=O)c2cc3cc(Cl)ccc3o2)c1 [Compound 65, 5-{[(5-chloro-benofuran-2-carbonyl)-amino]-methyl}-benzoic acid methyl ester]	–	–	154 to 155.6 °C
O=C(Nc1ccc(N2CCOCC2)cc1)c1cc2cc(Cl)ccc2o1 [Compound 99]	–	–	223.8 to 225.6 °C
CN(C)S(=O)(=O)c1ccc(CNC(=O)c2cc3cc(Cl)ccc3o2)cc1 [Compound 67, 5-chloro-benzofuran-2-carboxylic acid 4-dimethylsulfamoyl-benzylamide]	–	–	163.9 to 166.6 °C
O=C(c1ccc(F)cc1)C1CCN(C(=O)c2cc3cc(Cl)ccc3o2)CC1 [Compound 102]	–	–	135 to 137.1 °C
COc1ccc(CNC(=O)c2ccc3ccccc3n2)c(OC)c1 [Compound 112, quinolin-2-carboxylic acid 2,4-dimethoxy-benzylamide]	–	–	93.9 to 95.4 °C
COc1ccc(CNC(=O)c2oc3ccc(Cl)cc3c2NC(C)=O)c(OC)c1 [Compound 115, 3-acetylamino-5-chloro-benzofuran-2-carboxylic acid 2,4-dimethoxy-benzylamide]	–	–	165.5 to 170.3 °C
O=C(c1cc2cc(Cl)ccc2o1)N1CCCC1c1ccc(F)cc1 (centres unmarked) [Compound 104, (5-chloro-benzofuran-2-yl)-[2-(4-fluoro-phenyl)-pyrrolidin-1-yl]-methanone]	–	–	104.4 to 106.1 °C

Further lines, results first:

remaining activity at 1 µM [1, 2]	remaining activity at 1 µM [1, 3]	melting point	Structure (SMILES)
76%	85%	178.6 to 179.7 °C	CN(C)c1ccc(CNC(=O)c2cc3cc(Cl)ccc3o2)cc1 [Compound 64, 5-chloro-benzofuran-2-carboxylic acid 4-dimethylamino-benzylamide]
85%	99%	173.8 to 176.2 °C	COc1ccc(CNC(=O)c2cc3cc(Cl)ccc3o2)c(O)c1 [Compound 108, 5-chloro-benzofuran-2-carboxylic acid 2-hydroxy-4-methoxy-benzylamide]
90%	98%	173.5 to 175 °C	O=C(NCc1ccc(-c2cccs2)cc1)c1cc2cc(Cl)ccc2o1 [Compound 34, 5-chloro-benzofuran-2-carboxylic acid 4-thiophen-2-yl-benzylamide]
71%	95%	129.5 to 131.1 °C	CC(C)(C)c1ccc(CNC(=O)c2cc3cc(Cl)ccc3o2)cc1 [Compound 71, 5-chloro-benzofuran-2-carboxylic acid 4-tert-butyl-benzylamide]
–	–	110.1 to 111.3 °C	CC[C@H](NC(=O)c1cc2cc(Cl)ccc2o1)c1ccccc1 [Compound 59, 5-chloro-benzofuran-2-carboxylic acid ((S)-1-phenyl-propyl)-amide]
–	–	136.3 to 138.2 °C	CC(NC(=O)c1cc2cc(Cl)ccc2o1)c1ccccc1 (centres unmarked) [Compound 57, 5-chloro-benzofuran-2-carboxylic acid (1-phenyl-ethyl)-amide]
–	–	211.2 to 215.6 °C	O=C(N[C@H](C(=O)O)c1ccccc1)c1cc2cc(Cl)ccc2o1 [Compound 41, (S)-[(5-chloro-benzofuran-2-carbonyl)-amino]-phenyl-acetic acid]
–	–	192.3 to 193.8 °C	O=C(NCc1ccc(Br)cc1)c1cc2cc(Cl)ccc2o1 [Compound 77, 5-chloro-benzofuran-2-carboxylic acid 4-bromo-benzylamide]
–	–	121.1 to 124.3 °C	O=C(NCC1COc2ccccc2O1)c1cc2cc(Cl)ccc2o1 (centres unmarked) [Compound 113, 5-chloro-benzofuran-2-carboxylic acid (2,3-dihydro-benzo[1,4]dioxin-2-ylmethyl)-amide]
–	–	187.6 to 189.1 °C	CS(=O)(=O)c1ccc(CNC(=O)c2cc3cc(Cl)ccc3o2)cc1 [Compound 79, 5-chloro-benzofuran-2-carboxylic acid 4-methanesulfonyl-benzylamide]
–	–	118.5 to 120.7 °C	CC[C@@H](NC(=O)c1cc2cc(Cl)ccc2o1)c1ccccc1 [Compound 58, 5-chloro-benzofuran-2-carboxylic acid ((R)-1-phenyl-propyl)-amide]
–	–	226.6 to 230.4 °C	N#Cc1ccc(CNC(=O)c2cc3cc(Cl)ccc3o2)cc1 [Compound 80, 5-chloro-benzofuran-2-carboxylic acid 4-cyano-benzylamide]
–	–	129.8 to 132.8 °C	O=C(NCc1ccccc1-c1ccccc1)c1cc2cc(Cl)ccc2o1 [Compound 72, 5-chloro-benzofuran-2-carboxylic acid (biphenyl-2-ylmethyl)-amide]
